Measured values as given in patent publication EP0684822B1, “CARBOCYCLIC DEOXYGUANOSINE ANALOGS FOR THE TREATMENT OF VIRAL INFECTIONS” (SOUTHERN RESEARCH INSTITUTE, priority 1993, dated 1994).
In brackets after ≈: the same amount, converted by molar mass. Several values for one entry are separate records, joined by “and”; a condition that tells them apart may be missing. Equal entries are not always repeated.

What was measured:
[1] = test system: H.Ep.-2 cells infected with HSV-1; experiment: Metabolism in HSV-1-infected H.Ep.-2 cells, SAX HPLC; type: cell-based, human; details: H.Ep.-2 cells infected with HSV-1, 8 hours, Fig. 4
Procedure: The in vivo metabolism of D- and L-2'CdG was also measured in HSV-[TK+]-infected, HSV-[TK-]-infected and mock infected H.Ep.-2 cells (human epidermal carcinoma cells, ATCC CCL23). Uninfected and infected cells were incubated in fresh medium containing 2 µCi/ml of either [^3H]-D- or L-2'CdG, as described above, to measure the metabolism of these enantiomers. After 8 hours the cells were harvested and washed free of medium with PBS, and extracts were prepared with cold 0.5 N perchloric acid for 0.5 hr. The extract was then neutralized with potassium bicarbonate and the resulting precipitate was removed by centrifugation. The supernatant was lyophilized to dryness and the acid-soluble metabolites were separated using SAX HPLC as described above.
While these findings are similar to those obtained with the isolated viral kinase, they differ from the resulted with the isolated enzyme in that relatively more di- and triphosphate were formed from L-2'CdG.

HSV-1 TK = molecular target: T1, HSV-1 TK (Human herpesvirus 1, UniProt P0DTH5); experiment: Competitive inhibition of [3H]-thymidine phosphorylation by partially purified HSV-1 TK; type: biochemical
T1 construct: HSV thymidine kinase (HSV TK) was isolated from HELA (BU25) cells infected with the SW148 strain of HSV-1; made in house; host or cells: HeLa (BU25) thymidine-kinase-deficient cells infected with HSV-1 strain S148/SW148
T1 sequence (P0DTH5 whole entry): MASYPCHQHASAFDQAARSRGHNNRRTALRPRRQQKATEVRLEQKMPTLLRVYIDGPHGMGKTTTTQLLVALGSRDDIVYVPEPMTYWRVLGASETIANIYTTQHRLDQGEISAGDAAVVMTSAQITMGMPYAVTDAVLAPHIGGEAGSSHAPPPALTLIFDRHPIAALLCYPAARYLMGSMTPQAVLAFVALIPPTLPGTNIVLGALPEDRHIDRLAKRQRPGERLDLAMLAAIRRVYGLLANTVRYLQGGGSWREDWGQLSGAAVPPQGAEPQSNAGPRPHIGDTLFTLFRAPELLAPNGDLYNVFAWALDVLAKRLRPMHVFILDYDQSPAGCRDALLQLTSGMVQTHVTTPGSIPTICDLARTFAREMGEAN
Procedure: The Ki's were determined from a plot of the slope of each line versus the concentration of the competitor (D-, L, or D,L-2'CdG) and are summarized below: TABLE 2

HSV-TK extract = molecular target: T2, HSV-TK extract (Human herpesvirus 1, UniProt P0DTH5); experiment: Phosphorylated products formed by HSV-TK extract, SAX HPLC; type: biochemical, HSV-1
T2 construct: HSV thymidine kinase (HSV TK) was isolated from HELA (BU25) cells infected with the SW148 strain of HSV-1; made in house; host or cells: HeLa (BU25) thymidine-kinase-deficient cells infected with HSV-1 strain S148/SW148
T2 sequence (P0DTH5 whole entry): as above
Procedure: HSV thymidine kinase activity was measured in 200 µl volumes containing HSV-TK extract obtained as described previously (Belzarini et al., supra), 5.0 mM ATP, 5 mM MgCl2, 9 mM potassium fluoride, 11.2 µg phosphoenol pyruvate, 5 µg of pyruvate kinase, 10 mM β-mercaptoethanol and either 50 µM [3H]-D-, L, or no drug for 60 minutes at 37°C. The reaction was stopped with perchloric acid (PCA), neutralized with potassium bicarbonate, and the reaction products were analyzed by SAX HPLC. The UV absorption spectra of selected peaks were determined with a rapid spectral detector (LKB, Gaithersburg, MD). […] The amount of monophosphate derived from L-2'CdG was about the same as the amount of triphosphate derived from D-2'CdG, and confirmed the results of the disk assay.
HSV extracts were also incubated with 10 µM of either [^3H]-D- or L-2'Cdg, as described above, to measure the metabolism of these entantiomers. After 2 hours the reaction was stopped with perchloric acid (PCA), neutralized with potassium bicarbonate, and the acid-soluble metabolites were separated using SAX HPLC as described above. The results are summarized below.: TABLE 3

HSV-1 (strain 377, TK+) = experiment: Antiviral activity against HSV-1; type: cell-based
Procedure: D-2'-CdG and L-2'-CdG were tested, alongside D,L-2'-CdG, against both HSV-1 (strain 377, TK+; obtained from Dr. Earl Kern, University of Alabama) and HSV-2 (strain MS, TK+; also obtained from Dr. Earl Kern). In these tests (Table 5), Ara-A and acyclovir (ACV) were the positive control drugs. In four tests vs. HSV-1, the antiviral activity (VR) and potency (MIC50) of D-2'-CdG were approximately the same as those of racemic 2-CdG. L-2'-CdG was only modestly active.

HBV = HBV DNA production and replication in 2.2.15 cell cultures; type: cell-based, Hepatitis B virus (HBV); details: for INTRACELLULAR HBV DNA INTEG. / INTRACELLULAR HBV DNA MONO. / INTRACELLULAR HBV DNA RI: 24 hours following 10th day of treatment; for HBV DNA IN CULTURE MEDIUM DAY 0: day 0 of treatment
Procedure: 2'-CdG was tested at three concentrations (50 ng/ml, 500 ng/ml, and 5 ug/ml) against the HBV-producing, human liver cell line, 2.2.15 (Sells et al., J. Virol. 62:2836, 1989). A racemic (D,L) preparation, as well as the purified D and L isomers were tested. For these analyses compounds were tested in duplicate at all concentrations. Ara-AMP and ddG (2'3'-dideoxyguanosine) were used as HBV inhibitory control compounds. […] The nucleoside analog, ddG was used as an additional control compound since ddG has activity against duck hepatitis B virus in chronically infected Peking ducks (Lee et al., Antimicrob. Agents Chemother. 33:336, 1989) and 2'-CdG is also a deoxyguanosine analog.
2.2.15 cells were seeded in 6 well culture plates and grown to confluence over a 10 day period in medium with 5% FBS. Test compounds were then added daily for a continuous 10 day period in medium with 1% dialyzed FBS. […] Compounds were tested, in duplicate cultures, at 3 concentrations covering a 100-fold range. Culture medium (changed daily during the treatment period) was collected and stored for analysis of extracellular (virion) HBV DNA from days 0, 3, 6, and 10 of the treatment period. This allowed for an analysis of the level of HBV virion production during discrete 24 hour intervals and reduced the potential for the buildup of toxic metabolites derived from the test compounds. Treated cells were lysed following the 10th day of treatment for the analysis of intracellular HBV genomic forms. HBV DNA was analyzed in a quantitative manner for (i) overall levels (both extracellular and intracellular DNA) and (ii) the relative rate of HBV replication (intracellular DNA only).
HBV DNA levels were measured by comparison to known amounts of HBV DNA standards applied to every nitrocellulose filter (gel or slot blot) using an AMBIS Beta Scanner. Standard curves, generated by multiple analyses, were used to correlate CPM measurements with relative levels of target HBV DNA. The levels of HBV DNA in each of three classes of intracellular viral genomic forms were individually quantitated: integrated HBV DNA, episomal monomeric genomes and HBV DNA replication intermediates (RI). Integrated HBV DNA was used to normalize the relative amounts of DNA in each lane because the levels of this class of HBV DNA would be expected to remain constant on a per cell basis. The levels of the monomeric HBV genomes and RI were used as an indicator of the relative level of HBV replication.

With `Nc1nc2c(ncn2[C@@H]2C[C@H](CO)[C@@H](O)C2)c(=O)[nH]1` [D-2'-CdG, [1R,3S,4R-(1α,3β,4α)]-D-2-Amino-1,9-dihydro-9-[3-hydroxy-4-(hydroxymethyl)cyclopentyl]-6H-purin-6-one] the principal soluble metabolite [1] was “the triphosphate”, the Ki (HSV-1 TK) was 2.1 µM and the DPM di (HSV-TK extract; 10 µM [3H] compound, 2 hours) was 2427 DPM. It also gave a DPM mono (HSV-TK extract; 10 µM [3H] compound, 2 hours) of 2138 DPM, a DPM nucleoside (HSV-TK extract; 10 µM [3H] compound, 2 hours) of 38555 DPM and a DPM total (HSV-TK extract; 10 µM [3H] compound, 2 hours) of 128000 DPM. The DPM tri (HSV-TK extract; 10 µM [3H] compound, 2 hours) was 85073 DPM, the major phosphorylated derivative (HSV-TK extract; 50 µM, 60 minutes at 37°C, Fig. 3) was “the triphosphate” and the VR (HSV-1 (strain 377, TK+); HSV-1, range of tests) was 4.8-6.3. For the same compound, the EC50 (HSV-1 (strain 377, TK+); Human alphaherpesvirus 1, HSV-1, range of tests, read-out: Mic50) was 0.1 to 0.3 µg/mL (≈ 0.377 to 1.13 µM), the “potency relative to ACV” value (HSV-1 (strain 377, TK+); more potent than ACV) was 5-10 times and the “anti-HBV activity (in words)” value (HBV; 50 ng/ml to 5 ug/ml, 2.2.15 cells) was “as active an inhibitor of HBV replication as the racemic mixture”. For the same compound, the “INTRACELLULAR HBV DNA INTEG.” value (HBV; 50ng/ml, listed as D, 2CdG) was 1.6 PG/UG CELL DNA and 1.3 PG/UG CELL DNA, the “INTRACELLULAR HBV DNA MONO.” value (HBV; 50ng/ml, listed as D, 2CdG) was 1.3 PG/UG CELL DNA and 2.1 PG/UG CELL DNA and the “INTRACELLULAR HBV DNA RI” value (HBV; 50ng/ml, listed as D, 2CdG) was 16 PG/UG CELL DNA and 20 PG/UG CELL DNA. For the same compound, the “HBV DNA IN CULTURE MEDIUM DAY 0” value (HBV; 50ng/ml, listed as D, 2CdG) was 100 pg/mL and 77 pg/mL, the “HBV DNA IN CULTURE MEDIUM DAY 3” value (HBV; 50ng/ml, listed as D, 2CdG) was 110 pg/mL and 70 pg/mL and the “HBV DNA IN CULTURE MEDIUM DAY 6” value (HBV; 50ng/ml, listed as D, 2CdG) was 38 pg/mL and 40 pg/mL. For the same compound, the “INTRACELLULAR HBV DNA RI” value (HBV; 500ng/ml) was 1 PG/UG CELL DNA, the “INTRACELLULAR HBV DNA INTEG.” value (HBV; 500ng/ml, listed as D, 2-CdG) was 1.0 PG/UG CELL DNA and 1.6 PG/UG CELL DNA and the “INTRACELLULAR HBV DNA MONO.” value (HBV; 500ng/ml, listed as D, 2-CdG) was 1.9 PG/UG CELL DNA and 1.8 PG/UG CELL DNA. For the same compound, the “HBV DNA IN CULTURE MEDIUM DAY 0” value (HBV; 500ng/ml, listed as D, 2-CdG) was 80 pg/mL and 90 pg/mL, the “HBV DNA IN CULTURE MEDIUM DAY 3” value (HBV; 500ng/ml, listed as D, 2-CdG) was 36 pg/mL and 43 pg/mL and the “HBV DNA IN CULTURE MEDIUM DAY 6” value (HBV; 500ng/ml, listed as D, 2-CdG) was 15 pg/mL and 14 pg/mL. For the same compound, the “INTRACELLULAR HBV DNA MONO.” value (HBV; 5 ug/ml) was 2.0 PG/UG CELL DNA, the “HBV DNA IN CULTURE MEDIUM DAY 0” value (HBV; 5 ug/ml, listed as D, 2-CdG) was 100 pg/mL and 120 pg/mL and the “HBV DNA IN CULTURE MEDIUM DAY 3” value (HBV; 5 ug/ml, listed as D, 2-CdG) was 18 pg/mL and 21 pg/mL. The “HBV DNA IN CULTURE MEDIUM DAY 6” value (HBV; 5 ug/ml, listed as D, 2-CdG) was 3 pg/mL and 6 pg/mL and the “HBV DNA IN CULTURE MEDIUM DAY 10” value (HBV; 5 ug/ml, day 10) was 0 pg/mL.
